Measured values reported in patent US8637683B2, “Macrocyclic lactone derivatives for the treatment of cancer” (Piramal Enterprises Limited, priority 2009, dated 2014).
≈ marks a conversion by molar mass, not a printed value.

Columns and labels:
Assay type in all cases: cell-based, human
BXF 1218L = test: Monolayer assay (modified propidium iodide), BXF 1218L; settings: Bladder, 4 days of treatment
Source text: (§1) Oncotest GmbH, Germany's proprietary tumor cell line panel comprises 40 cell lines. These cell lines were derived from 15 different tumor histotypes, each represented by 1 to 6 different cell lines. Cell lines were established from cancer of the bladder (3), colon (4), head and neck (1), lung (6), breast (3), pancreas (3), prostate (4), ovary (2), kidney (3), liver (1), stomach (1) and the uteri body (1), as well as from melanoma (3), sarcoma (2) and pleuramesothelioma (3). Out of these 40 cell lines, 24 cell lines were established at Oncotest, from patient-derived tumor xenografts. […]
(§2) Stock solutions of the test compounds (330 μg/mL in DMSO) were prepared and stored in small aliquots (200 μL) at −20° C. […] Each concentration was evaluated in triplicate. […]
(§3) Cells were plated in 96-well flat-bottom microtiter plates at a cell density of 4,000 to 10,000 cells/well. […] To measure the viable cell number, the remaining adherent cells were killed and permeabilized by repeated freezing and thawing and PI fluorescence was measured using the Cytofluor 4000 microplate reader (excitation λ=530 nm, emission λ=620 nm), which was a measure for the number of cells which survived treatment. […] IC-values were calculated based on the principle of linear two-point curve fit. […]

BXF 1352L = test: Monolayer assay (modified propidium iodide), BXF 1352L; settings: Bladder, 4 days of treatment
Source text: as §1, §2, §3

HT 29 = test: Monolayer assay (modified propidium iodide), HT 29; settings: HT 29, Colon, 4 days of treatment
Source text: as §1, §2, §3

RKO = test: Monolayer assay (modified propidium iodide), RKO; settings: Colon, 4 days of treatment
Source text: as §1, §2, §3

LIXF 575L = test: Monolayer assay (modified propidium iodide), LIXF 575L; settings: Liver, 4 days of treatment
Source text: as §1, §2, §3

LXF 529L = test: Monolayer assay (modified propidium iodide), LXF 529L; settings: Lung, 4 days of treatment
Source text: as §1, §2, §3

LXF 629L = test: Monolayer assay (modified propidium iodide), LXF 629L; settings: Lung, 4 days of treatment
Source text: as §1, §2, §3

H 460 = test: Monolayer assay (modified propidium iodide), H 460; settings: H 460, Lung, 4 days of treatment
Source text: as §1, §2, §3

MAXF 401NL = test: Monolayer assay (modified propidium iodide), MAXF 401NL; settings: Mammary, 4 days of treatment
Source text: as §1, §2, §3

MDA 231 = test: Monolayer assay (modified propidium iodide), MDA 231; settings: MDA 231, Mammary, 4 days of treatment
Source text: Oncotest GmbH, Germany's proprietary tumor cell line panel comprises 40 cell lines. These cell lines were derived from 15 different tumor histotypes, each represented by 1 to 6 different cell lines. Cell lines were established from cancer of the bladder (3), colon (4), head and neck (1), lung (6), breast (3), pancreas (3), prostate (4), ovary (2), kidney (3), liver (1), stomach (1) and the uteri body (1), as well as from melanoma (3), sarcoma (2) and pleuramesothelioma (3). Out of these 40 cell lines, 24 cell lines were established at Oncotest, from patient-derived tumor xenografts. The other 16 cell lines were either provided by the NCI (Bethesda; MD, USA) or were purchased from ATCC (Rockville, Md., USA) or DSMZ (Braunschweig, Germany).
Cell lines were routinely passaged once or twice weekly and maintained in culture for upto 20 passages. All cells were grown at 37° C. in a humidified atmosphere with 5% CO2 in RPMI 1640 medium supplemented with 10% (v/v) fetal calf serum (FCS) and 0.1 mg/mL gentamicin (medium and all other components from PAA, Cölbe, Germany). […]
as §2
as §3, with “treatment. Pharmacological effects on cell proliferation and survival were expressed as Test/Control×100 (% T/C) values, with T and C representing the fluorescence read-outs for wells with and without test compound, respectively, i.e. T/C represents the ratio of viable cell numbers following incubation of cell line with/without test compound.” for “treatment.”

PANC 1 = test: Monolayer assay (modified propidium iodide), PANC 1; settings: PANC 1, Pancreas, 4 days of treatment
Source text: as §1, §2, §3

22RV1 = test: Monolayer assay (modified propidium iodide), 22RV1; settings: 22RV1, Prostate, 4 days of treatment
Source text: as §1, §2, §3

LNCAP = test: Monolayer assay (modified propidium iodide), LNCAP; settings: Prostate, 4 days of treatment
Source text: as §1, §2, §3

PC3M = test: Monolayer assay (modified propidium iodide), PC3M; settings: Prostate, 4 days of treatment
Source text: as §1, §2, §3

PXF 1118L = test: Monolayer assay (modified propidium iodide), PXF 1118L; settings: Pleuramesothelioma, 4 days of treatment
Source text: as §1, §2, §3

PXF 1752L = test: Monolayer assay (modified propidium iodide), PXF 1752L; settings: Pleuramesothelioma, 4 days of treatment
Source text: as §1, §2, §3

RXF 393NL = test: Monolayer assay (modified propidium iodide), RXF 393NL; settings: Renal, 4 days of treatment
Source text: as §1, §2, §3

TE671 = test: Monolayer assay (modified propidium iodide), TE671; settings: TE671, Sarcoma, 4 days of treatment
Source text: as §1, §2, §3

C/C=C/C(O)C(C)/C=C/C(=N\O)C(C)C(O)C(C)C1OC(=O)/C(OC)=C/C(C)=C/C(C)C(O)C(CC)C(O)C(C)C/C(C)=C/C=C/C1OC (stereo not drawn) [Example 7, (3Z,5E,13E,15E)-18-((5Z,6E,10E)-3,9-Dihydroxy-5-(hydroxymino)-4,8-dimethyldodeca-6,10-dien-2-yl)-9-ethyl-8,10-dihydroxy-3,17-dimethoxy-5,7,11,13-tetramethyl oxacyclooctadeca-3,5,13,15-tetraen-2-one]
IC70 (BXF 1218L): 46.0 ng/mL (≈ 66.7 nM) | IC50 (BXF 1218L; Homo sapiens, 96 h): 4 ng/mL (≈ 5.8 nM) | IC70 (BXF 1352L): 2.0 ng/mL (≈ 2.9 nM) | IC50 (BXF 1352L; Homo sapiens, 96 h): 0.2 ng/mL (≈ 0.29 nM) | IC70 (HT 29): 0.9 ng/mL (≈ 1.3 nM) | IC50 (HT 29; Homo sapiens, 96 h): 0.4 ng/mL (≈ 0.58 nM) | IC70 (RKO): 0.6 ng/mL (≈ 0.87 nM) | IC50 (RKO; Homo sapiens, 96 h): 0.2 ng/mL (≈ 0.29 nM) | IC50 (LIXF 575L; Homo sapiens, 96 h): < 0.1 ng/mL | IC70 (LIXF 575L): 2.0 ng/mL (≈ 2.9 nM) | IC50 (LXF 529L; Homo sapiens, 96 h): 1 ng/mL (≈ 1.45 nM) | IC70 (LXF 529L): 7.0 ng/mL (≈ 10.1 nM) | IC50 (LXF 629L; Homo sapiens, 96 h): 0.1 ng/mL (≈ 0.145 nM) | IC70 (LXF 629L): 1.0 ng/mL (≈ 1.45 nM) | IC70 (H 460): 2.0 ng/mL (≈ 2.9 nM) | IC50 (H 460; Homo sapiens, NCI-H460, 96 h): 0.7 ng/mL (≈ 1.01 nM) | IC50 (MAXF 401NL; Homo sapiens, 96 h): 3 ng/mL (≈ 4.35 nM) | IC70 (MAXF 401NL): 8.0 ng/mL (≈ 11.6 nM) | IC50 (MDA 231; Homo sapiens, MDA-MB-231, 96 h): < 0.1 ng/mL | IC70 (MDA 231): <0.1 ng/mL | IC50 (PANC 1; Homo sapiens, 96 h): 0.6 ng/mL (≈ 0.87 nM) | IC70 (PANC 1): 17.0 ng/mL (≈ 24.6 nM) | IC70 (22RV1): 9.0 ng/mL (≈ 13 nM) | IC50 (22RV1; Homo sapiens, 96 h): 4 ng/mL (≈ 5.8 nM) | IC50 (LNCAP; Homo sapiens, 96 h): 3 ng/mL (≈ 4.35 nM) | IC70 (LNCAP): 15.0 ng/mL (≈ 21.7 nM) | IC50 (PC3M; Homo sapiens, PC-3M, 96 h): 0.4 ng/mL (≈ 0.58 nM) | IC70 (PC3M): 3.0 ng/mL (≈ 4.35 nM) | IC50 (PXF 1118L; Homo sapiens, 96 h): 0.432 µg/mL (≈ 626 nM) | IC70 (PXF 1118L): >1000 ng/mL | IC50 (PXF 1752L; Homo sapiens, 96 h): 3 ng/mL (≈ 4.35 nM) | IC70 (PXF 1752L): 22.0 ng/mL (≈ 31.9 nM) | IC50 (RXF 393NL; Homo sapiens, 96 h): 7 ng/mL (≈ 10.1 nM) | IC70 (RXF 393NL): 1000 ng/mL (≈ 1450 nM) | IC50 (TE671; Homo sapiens, TE-671, 96 h): 2 ng/mL (≈ 2.9 nM) | IC70 (TE671): 5.0 ng/mL (≈ 7.25 nM)
